Results from US20220089592A1, “IMIDAZO[1,2-A]PYRIDINYL DERIVATIVES AS IRAK4 INHIBITORS” (priority 2019, published 2022).

Tests used:
IRAK4 [1] = molecular target: T1, IRAK4 (Homo sapiens, UniProt Q9NWZ3); test: 2-hour 1 mM ATP IRAK4 Biochemical assay (as above, but with 100 pM IRAK4 and 1 mM ATP); conditions: IRAK4 MSD BIOCHEMICAL (1 mM ATP) IC50 (μM), 100 pM IRAK4, 2 hours
T1 sequence (Q9NWZ3 1-460): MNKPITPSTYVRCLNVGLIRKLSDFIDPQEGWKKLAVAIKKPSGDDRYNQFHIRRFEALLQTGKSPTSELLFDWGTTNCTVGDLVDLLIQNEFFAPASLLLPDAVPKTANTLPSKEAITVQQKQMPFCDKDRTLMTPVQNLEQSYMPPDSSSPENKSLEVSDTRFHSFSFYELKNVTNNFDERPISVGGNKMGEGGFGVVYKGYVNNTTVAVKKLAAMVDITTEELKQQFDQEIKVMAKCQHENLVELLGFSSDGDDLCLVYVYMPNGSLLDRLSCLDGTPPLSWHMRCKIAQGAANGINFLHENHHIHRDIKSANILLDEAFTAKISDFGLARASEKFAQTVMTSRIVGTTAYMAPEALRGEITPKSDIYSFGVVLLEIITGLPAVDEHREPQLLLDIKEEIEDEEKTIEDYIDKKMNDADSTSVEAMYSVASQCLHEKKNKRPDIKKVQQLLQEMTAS
In short: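 MSD electrochemiluminescence read-out: biotinylated peptide product bound to streptavidin plates, probed with anti-P-Thr rabbit antibody and Sulfo-Tag goat anti-rabbit. Kinase reaction used 1 mM ATP and 100 pM IRAK4 over 2 hours before EDTA quench.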

IRAK4 [2] = molecular target: T1, IRAK4; test: 2-hour 10 μM ATP Biochemical Assay (MesoScale Detection format; IRAK4 phosphorylation of biotin labeled IRAK1 activation loop peptide); conditions: IRAK4 MSD BIOCHEMICAL (10 μM ATP) IC50 (μM), 1 nM IRAK4, 2 hours
In short: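 Electrochemiluminescent MSD readout: after streptavidin capture, phosphothreonine on the biotin-labelled IRAK1 activation-loop peptide detected by rabbit antibody and Sulfo-Tag secondary. Phosphorylation ran 2 h with 10 μM ATP before EDTA quench.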

| SMILES | IC50 (IRAK4 [1]) | IC50 (IRAK4 [2]) |
| --- | --- | --- |
| CCOc1cc2nc(CC3COCCO3)cn2cc1NC(=O)c1cccc(C(F)F)n1 (stereo not drawn) [Example 83, N-(2-((1,4-dioxan-2-yl)methyl)-7-ethoxyimidazo[1,2-a]pyridin-6-yl)-6-(difluoromethyl)picolinamide] | 0.005 µM | 0.001 µM |
| CCOc1cc2nc(C3CCOCC3)cn2cc1NC(=O)c1cc(F)n(C)n1 [Example 210, N-(7-ethoxy-2-(tetrahydro-2H-pyran-4-yl)imidazo[1,2-a]pyridin-6-yl)-5-fluoro-1-methyl-1H-pyrazole-3-carboxamide] | 0.038 µM | 0.015 µM |
| CCOc1cc2nc(C34CC(C(F)F)(C3)C4)cn2cc1NC(=O)c1cccc(C(F)(F)F)n1 [Example 522, N-(2-(3-(difluoromethyl)bicyclo[1.1.1]pentan-1-yl)-7-ethoxyimidazo[1,2-a]pyridin-6-yl)-6-(trifluoromethyl)picolinamide 2,2,2-trifluoroacetate] | 0.002 µM | 0.001 µM |
| CCOc1nc2nc(CC3CCOC3)cn2cc1NC(=O)c1cccc(C(F)(F)F)n1 (single isomer, unassigned) [Example 95] | 0.003 µM | 0.001 µM |
| CCOc1cc2nc(C3(OC)CC3)cn2cc1NC(=O)c1cccc(C(F)F)n1 [Example 128, 6-(difluoromethyl)-N-(7-ethoxy-2-(1-methoxycyclopropyl)imidazo[1,2-a]pyridin-6-yl)picolinamide] | 0.007 µM | 0.002 µM |
| CCOc1cc2nc(C34CC(COC)(C3)C4)cn2cc1NC(=O)c1cccc(C(F)(F)F)n1 [Example 523, N-(7-ethoxy-2-(3-(methoxymethyl)bicyclo[1.1.1]pentan-1-yl)imidazo[1,2-a]pyridin-6-yl)-6-(trifluoromethyl)picolinamide] | 0.001 µM | 0.001 µM |
| CCOc1cc2nc(CCC(C)(C)O)cn2cc1NC(=O)c1cccc(C(F)F)n1 [Example 27, 6-(difluoromethyl)-N-(7-ethoxy-2-(3-hydroxy-3-methylbutyl)imidazo[1,2-a]pyridin-6-yl)picolinamide] | 0.001 µM | 0.001 µM |
| CCOc1cc2nc(C3CCCOC3)cn2cc1NC(=O)c1cccc(C(F)(F)F)n1 (stereo not drawn) [Example 112, N-(7-ethoxy-2-(tetrahydro-2H-pyran-3-yl)imidazo[1,2-a]pyridin-6-yl)-6-(trifluoromethyl)picolinamide] | 0.001 µM | 0.001 µM |
| CCOc1cc2nc(C3CNC3)cn2cc1NC(=O)c1cccc(C(F)(F)F)n1 [Example 61, N-(2-(azetidin-3-yl)-7-ethoxyimidazo[1,2-a]pyridin-6-yl)-6-(trifluoromethyl)picolinamide] | 0.002 µM | 0.001 µM |
| CCOc1cc2nc(CC3CCOC3)cn2cc1NC(=O)c1ccn(CC(F)F)n1 (stereo not drawn) [Example 125, 1-(2,2-difluoroethyl)-N-(7-ethoxy-2-((tetrahydrofuran-3-yl)methyl)imidazo[1,2-a]pyridin-6-yl)-1H-pyrazole-3-carboxamide] | 0.01 µM | 0.004 µM |
| CC(C#N)Oc1cc2nc(C3CCOCC3)cn2cc1NC(=O)c1cccc(C(F)F)n1 (stereo not drawn) [Example 173, N-(7-(1-cyanoethoxy)-2-(tetrahydro-2H-pyran-4-yl)imidazo[1,2-a]pyridin-6-yl)-6-(difluoromethyl)picolinamide] | 0.001 µM | 0.001 µM |
| CCOc1cc2nc([C@@H](F)[C@@H]3CCOC3)cn2cc1NC(=O)c1cccc(C(F)(F)F)n1 (single isomer, unassigned) [Example 145] | 0.002 µM | 0.001 µM |
| CCOc1cc(NC(=O)c2cccc(C(F)F)n2)cn2cc(C3CCOCC3)nc12 [Example 413, 6-(difluoromethyl)-N-(8-ethoxy-2-(tetrahydro-2H-pyran-4-yl)imidazo[1,2-a]pyridin-6-yl)picolinamide] | 0.015 µM | 0.005 µM |
| CCOc1cc2nc(C(C)(C)C#N)cn2cc1NC(=O)c1coc(C(F)F)n1 [Example 359, N-(2-(2-cyanopropan-2-yl)-7-ethoxyimidazo[1,2-a]pyridin-6-yl)-2-(difluoromethyl)oxazole-4-carboxamide] | 0.023 µM | 0.01 µM |
| CCOc1cc2nc(Cn3ccccc3=O)cn2cc1NC(=O)c1cccc(C(F)F)n1 [Example 87, 6-(difluoromethyl)-N-(7-ethoxy-2-((2-oxopyridin-1(2H)-yl)methyl)imidazo[1,2-a]pyridin-6-yl)picolinamide] | 0.017 µM | 0.004 µM |
